These molecules were tested on asexual erythrocytic stages of transgenic NF54-luc P. falciparum (assay: Luciferase-based viability screening for anti-malarial activity). Details: 3 µM, 48 h; >50% inhibition of viability rated active.
Format: cell-based, Plasmodium falciparum
Experimental: Asexual erythrocytic stages of transgenic NF54-luc P. falciparum were used for the luciferase-based viability assay. These parasites constitutively express high levels of luciferase. The parasites were cultured as described previously. Parasite culture with parasitaemia of 0.5–1% was dispensed in triplicate into white 96-well flat-bottom plates (each well contains 250 µL) (NUNC, Roskilde, […], 90% N2, 5% CO2, and 5% O2). 0.01% DMSO was included in the untreated infected RBC cultures as negative control, since the compounds stock initially was diluted in DMSO and each treatment well also contained 0.01% DMSO. Subsequently, 100 µL RPMI1640 media was removed from each well and a 100 µL volume of the Bright-Glo® substrate solution added to each well. The resultant cleavage product of the reaction, light, was measured using a FLUOROSKAN FL luminometer (Thermo), to ascertain viable parasites. Untreated cultures were used as negative controls and to calculate the inhibition rate (0% inhibition of parasite growth). Blasticidin (Sigma-Aldrich, St. Louis, MO, USA), used for selection of transfected parasites, was included as a positive control on each plate and gave >90% inhibition of parasite growth at concentration 2 µg/mL. Compounds with >50% inhibition of viability were rated as actives. Experiments were performed in triplicate and were repeated at least twice.

Compound	% inhibition, PfNF54-Luc at 3 µM [%]
c1coc(-c2nnc(Sc3ncnc4sccc34)o2)c1 [Compound 3a]	80.8 ± 0.5

Same assay, conditions: Plasmodium falciparum, NF54, 48 h, read-out: % inhibition, PfNF54-Luc at 3 µM, 3 µM, 48 h; >50% inhibition of viability rated active

Compound	inhibition at 3 µM [%]
c1cnc2[nH]c(Sc3ncnc4sccc34)nc2c1 [Compound 8k]	98 ± 0.2
c1coc(-c2nnc(Sc3ncnc4sccc34)o2)c1 [Compound 3a]	80
Nc1nnc(Sc2ncnc3sccc23)s1 [Compound 8f]	99.7 ± 0.1
c1coc(Sc2ncnc3sccc23)n1 [Compound 8e]	99.5 ± 0.5
c1csc(Sc2ncnc3sccc23)n1 [Compound 8d]	99.9
Cn1ccnc1Sc1ncnc2sccc12 [Compound 8c]	96.5 ± 1.6
c1ccc2[nH]c(Sc3ncnc4sccc34)nc2c1 [Compound 8g]	95 ± 1.1

These molecules were tested on Plasmodium falciparum parasites (3D7 strain) (assay: Coenzyme A rescue assay (imaging-based growth inhibition, with or without 0.8 mM CoA)). Details: IC50 CoA / IC50 solvent.
Format: cell-based
Experimental: Plasmodium falciparum parasites (3D7 strain) were grown in RPMI 1640 supplemented with 25 mM HEPES, 5 mg/mL Albumax II, and 0.37 mM hypoxanthine. Parasites were subjected to two rounds of sorbitol synchronization before undergoing compound treatment. Ring stage parasites were exposed to the experimental compounds alone, or in combination with 0.8 mM coenzyme A (CoA) in 384-wells imaging microplates (CellCarrier, PerkinElmer), as previously described. […] Puromycin 5 µM and untreated solvent were used as in-plate positive and negative controls, respectively. Samples were dissolved in DMSO to a final assay DMSO concentration of 0.4%. […] All sample and control wells contained the same final amounts of solvents. Plates were incubated for 72 h at 90% N2, 5% CO2, 5% O2, then parasites were stained with 2-(4-amidinophenyl)-1H-indole-6-carboxamidine (DAPI), and imaged using an Opera QEHS micro-plate confocal imaging system (PerkinElmer) with 405 nm excitation and 450/50 emission filter, using a 20× water immersion objective. Images were analysed as previously described, to obtain normalized % inhibition data, which were then used to calculate IC50 values, through a four parameter logistic curve fitting in GraphPad Prism v.6. The experiment was carried out in two independent biological replicates, each consisting of two technical replicates. Dose–response curves are illustrated in the Additional file 4.

Compound	IC50 shift with CoA supplementation [fold]
Nc1nnc(Sc2ncnc3sccc23)s1 [Compound 8f]	117
c1coc(Sc2ncnc3sccc23)n1 [Compound 8e]	34
c1csc(Sc2ncnc3sccc23)n1 [Compound 8d]	67

Same assay, conditions: IC50 with 0.8 mM CoA / IC50 solvent; threshold 5× significant

Compound	IC50-ratio (CoA/solvent)
c1cnc2[nH]c(Sc3ncnc4sccc34)nc2c1 [Compound 8k]	7.11
c1coc(-c2nnc(Sc3ncnc4sccc34)o2)c1 [Compound 3a]	16.3
Nc1nnc(Sc2ncnc3sccc23)s1 [Compound 8f]	117
c1coc(Sc2ncnc3sccc23)n1 [Compound 8e]	34.5
c1csc(Sc2ncnc3sccc23)n1 [Compound 8d]	67.3
c1ccc2[nH]c(Sc3ncnc4sccc34)nc2c1 [Compound 8g]	7.23

Same assay, conditions: Plasmodium falciparum, 3D7, 72 h, 0.8 mM CoA (rescue), 72 h; read-out: IC50 [µM], Pf3D7 + 0.8 mM CoA

Compound	IC50 [µM]
c1cnc2[nH]c(Sc3ncnc4sccc34)nc2c1 [Compound 8k]	1.06 ± 0.03
c1coc(-c2nnc(Sc3ncnc4sccc34)o2)c1 [Compound 3a]	4.61 ± 0.15
Nc1nnc(Sc2ncnc3sccc23)s1 [Compound 8f]	> 11
c1coc(Sc2ncnc3sccc23)n1 [Compound 8e]	2.6 ± 0.4
c1csc(Sc2ncnc3sccc23)n1 [Compound 8d]	2.6 ± 0.4
Cn1ccnc1Sc1ncnc2sccc12 [Compound 8c]	2.31 ± 0.17
c1ccc2[nH]c(Sc3ncnc4sccc34)nc2c1 [Compound 8g]	0.531 ± 0.007

Same assay, conditions: Plasmodium falciparum, 3D7, 72 h, no CoA (solvent, non-rescue), 72 h; read-out: IC50 [µM], Pf3D7 + solvent

Compound	IC50 [µM]
c1cnc2[nH]c(Sc3ncnc4sccc34)nc2c1 [Compound 8k]	0.149 ± 0.021
c1coc(-c2nnc(Sc3ncnc4sccc34)o2)c1 [Compound 3a]	0.283 ± 0.073
Nc1nnc(Sc2ncnc3sccc23)s1 [Compound 8f]	0.096 ± 0.006
c1coc(Sc2ncnc3sccc23)n1 [Compound 8e]	0.0747 ± 0.021
c1csc(Sc2ncnc3sccc23)n1 [Compound 8d]	0.039 ± 0.001
Cn1ccnc1Sc1ncnc2sccc12 [Compound 8c]	1.3
c1ccc2[nH]c(Sc3ncnc4sccc34)nc2c1 [Compound 8g]	0.0734 ± 0.0022

Same assay, conditions: Plasmodium falciparum, 3D7, no CoA; read-out: IC50, 3D7 strain

Compound	IC50 [µM]
c1coc(Sc2ncnc3sccc23)n1 [Compound 8e]	0.075

Same assay, conditions: compared to 8c

Compound	fold higher antiplasmodial activity [fold]
c1coc(Sc2ncnc3sccc23)n1 [Compound 8e]	17

The molecules below were run on THP-1 cells (assay: Cytotoxicity assay: human THP-1 cell line (Alamar Blue)). Details: Homo sapiens, THP-1; cytotoxicity, 48 h.
Format: cell-based
Experimental: THP-1 cells were passed into fresh THP-1 culture medium. Cells were harvested by centrifugation (250×g, 10′, 4 °C), washed three times with RPMI 1640 medium, and diluted to 8 × 10^5 cells/mL. The cells were aliquoted in triplicate (125 μL/well) into 96-well flat-bottom plates containing compounds diluted in complete medium (125 μL/well, containing 0.01% DMSO). THP-1 cells in wells containing medium plus 0.01% DMSO served as negative controls. Cells were incubated with test compounds at 37 °C and 5% CO2 for 48 h prior to the addition of 10% Alamar Blue (25 μL/well). After an additional 4 h the fluorescence was read (λex = 544 nm, λem = 590 nm) using a microplate reader (Fluoroskan Ascent FL, Thermo Fisher Scientific, Waltham, MA, USA). Results were analysed using Prism 4 (GraphPad Software Inc., La Jolla, CA, USA). Experiments were performed in triplicate and were repeated at least twice.

Compound	IC50 [µM]
c1cnc2[nH]c(Sc3ncnc4sccc34)nc2c1 [Compound 8k]	28
c1coc(-c2nnc(Sc3ncnc4sccc34)o2)c1 [Compound 3a]	6.13
Nc1nnc(Sc2ncnc3sccc23)s1 [Compound 8f]	11
c1coc(Sc2ncnc3sccc23)n1 [Compound 8e]	33.6
c1csc(Sc2ncnc3sccc23)n1 [Compound 8d]	27.5
Cn1ccnc1Sc1ncnc2sccc12 [Compound 8c]	> 300
c1ccc2[nH]c(Sc3ncnc4sccc34)nc2c1 [Compound 8g]	16.5

Same assay, conditions: IC50 THP-1 / IC50 3D7

Compound	selectivity THP-1 vs 3D7 parasites [fold]
c1coc(Sc2ncnc3sccc23)n1 [Compound 8e]	450

Same assay, conditions: human cell lines vs 3D7

Compound	selectivity toward human cell lines [fold]
c1coc(Sc2ncnc3sccc23)n1 [Compound 8e]	> 100

These molecules were tested on human embryonic kidney (HEK-293) cells (assay: Cytotoxicity assay: human HEK-293 cell line (resazurin)). Details: Homo sapiens, HEK293; cytotoxicity, 72 h; read-out: IC50 [µM], HEK-293.
Format: cell-based
Experimental: Cytotoxicity against human embryonic kidney (HEK-293) cells was assessed as previously described. […] Cells were detached using Accutase treatment, then seeded into black clear-bottom 384-wells fluorescence microplates (Greiner), at a cell density of 44,000 cells/mL in 45 µL/well, using a Benchtop liquid dispenser (Thermo Fisher Multidrop). After seeding, the cells were brought back to the incubator and allowed to settle and reattach overnight. […] Plates were incubated at the standard condition above for 72 h. At the end of the incubation the medium in each well was replaced with 1 mM resazurin, and the plates were read using a multilabel microplate reader (PerkinElmer Envision) at 530 nm excitation and 595 nm emission wavelengths after a further 6 h incubation. Inhibition data was generated using Office Excel 2013 (Microsoft). IC50 values were calculated by fitting a four-parameter nonlinear regression model using Prism v.6.0 (Graphpad Software Inc., La Jolla, CA, USA).

Compound	IC50 [µM]
c1cnc2[nH]c(Sc3ncnc4sccc34)nc2c1 [Compound 8k]	> 20
c1coc(-c2nnc(Sc3ncnc4sccc34)o2)c1 [Compound 3a]	> 10
Nc1nnc(Sc2ncnc3sccc23)s1 [Compound 8f]	> 4
c1coc(Sc2ncnc3sccc23)n1 [Compound 8e]	> 10
c1csc(Sc2ncnc3sccc23)n1 [Compound 8d]	> 10
Cn1ccnc1Sc1ncnc2sccc12 [Compound 8c]	> 40
c1ccc2[nH]c(Sc3ncnc4sccc34)nc2c1 [Compound 8g]	> 10

Same assay, conditions: IC50 HEK-293 / IC50 3D7

Compound	selectivity HEK-293 vs 3D7 parasites [fold]
c1coc(Sc2ncnc3sccc23)n1 [Compound 8e]	> 133

From PMC5430599, “Antiplasmodial dihetarylthioethers target the coenzyme A synthesis pathway in Plasmodium falciparum erythrocytic stages” (Malaria Journal, 2017)
